Measured values reported in patent publication US20180008717A1, “PHARMACEUTICAL COMPOSITION WITH ANALGESIC AND ANTI-INFLAMMATORY ACTIVITY” (priority 2016, published 2018).
Counter-ions that a name gives are not always drawn.

Assays:
Format in all cases: in vivo
mice [1] = test: Hot plate test (topical ointment); conditions: hot plate 55 degrees Celsius, 2 percent w/w ointment topically 5 min before, cut-off 60 seconds, mean±SEM
Procedure: (§1) Example 3 illustrates the analgesic activity of the esters evaluated using models of providing thermal stimuli (hot plate) and chemical stimuli (formalin, capsaicin and allyl isothiocyanate) to the subjects i.e., mice.
TEST 1: Hot plate test: The hot plate test (HPT) is often used for investigation of a noxious stimulus (heat) in models of acute pain. Classically, the latency of the animal's response to the stimulus is recorded as the dependent variable.
All compounds, including BZC, were applied topically in an ointment (2 percent weight by weight based on the total weight of formulation) prepared according to the procedure described in Example 1. The ointments were applied both to the palmar and plantar surfaces of the paws of the mice by gently rubbing 5 min before analgesic activity evaluation. A corresponding amount of the ointment base were similarly applied for mice used as control animals. The mice were placed on a hot plate maintained at 55 degrees Celsius, one at a time. In this experiment, latency to respond to the heat stimulus was determined by the amount of time (in seconds) it took for a mouse to lick one of its paws. Cut-off time was fixed at 60 seconds to minimize the tissue damage that occurs during prolonged contact with heated surface. All values are expressed as the mean±standard errors of the mean (SEM) in all the tables.

mice [2] = test: Capsaicin test (topical ointment); conditions: capsaicin 6 micrograms/paw s.c., 2 percent w/w ointment topically 5 min before, observed 5 minutes, mean±SEM
Description: as §1
TEST 2: Capsaicin test: Capsaicin (8-methyl-N-vanillyl-6-nonenamide), the pungent substance obtained from hot red pepper, is used to evaluate analgesic activity on mice, for compounds synthesized herein.
All compounds, including BZC, were applied topically as an ointment (2 percent weight by weight based on the total weight of formulation) prepared according to the procedure described in Example 2. The ointments were applied to the affected paws' surface by gently rubbing 5 min before analgesic activity evaluation. A corresponding amount of the ointment base were similarly applied for mice used as control animals. To evaluate analgesic activity 20 microliter of capsaicin solution in 1,2-propylene glycol (6 micrograms/paw) was injected subcutaneously under the skin of the dorsal surface of the hindpaw. Animals were observed individually for 5 minutes after capsaicin administration. The amount of time that mice spent licking the injected paw was recorded and considered as an index of pain.

mice [3] = test: Formalin test, early phase (topical ointment); conditions: 20 microliter 2 percent formalin s.c., 2 percent w/w ointment topically 5 minutes before, 0 to 5 min (early phase), mean±SEM
Procedure: as §1
TEST 3: Formalin test: The formalin test was used to determine the potential analgesic effects of compounds for states of persistent pain in which tissue damage occurs. The nociceptive response produced by formalin is biphasic: an early response (0 to 5 min after injection) and a late response (20 to 30 minutes after injection). These two phases can be distinguished pharmacologically: phase 1 is supposed to represent a direct chemical stimulation of nociceptors while phase 2 is thought to involve inflammation. Aiming at assessment precisely response caused by a burst of activity from pain fibers we measured the licking time as an indicator of nociception only during the first (early) phase. All compounds, including BZC, were applied topically in an ointment (2 percent weight by weight based on the total weight of formulation) prepared according to the procedure described in Example 2. The ointments were applied to the affected paws' surface by gently rubbing 5 minutes before analgesic activity evaluation. A corresponding amount of the ointment base were similarly applied for mice used as control animals. After that, 20 microliter of a 2 percent formalin solution in 0.9 percent NaCl (w/w) was injected subcutaneously into the dorsal surface of the hindpaw. The animal then was placed in an individual plexiglass cage. The time spent by the animal in licking the injected paw was measured from 0 to 5 min (early phase) after formalin administration and was considered as an indicator of pain response.

mice [4] = test: Allyl isothiocyanate (AITC, TRPA1 agonist) test (topical ointment); conditions: 20 microliters 0.5 percent AITC s.c., 2 percent w/w ointment topically 5 min before, observed 10 minutes, mean±SEM
Procedure: as §1
TEST 4: Allyl isothiocyanate test: The analgesic activity was evaluated by a model of chemical stimulus with the use of TRPA1 agonist—allyl isothiocyanate (AITC).
20 Microliters of 0.5 percent (w/w in 1,2-propylene glycol) AITC solution was injected subcutaneously under the skin of the dorsal surface of the right hindpaw. All compounds, including BZC, were applied topically in an ointment (2 percent weight by weight based on the total weight of formulation) prepared according to the procedure described in Example 2. The ointments were applied to the affected paws' surface by gently rubbing 5 min before analgesic activity evaluation. A corresponding amount of the ointment base were similarly applied for mice used as control animals. AITC dose was selected based on our preliminary trials and from literature citations. Animals were observed individually for 10 minutes after AITC administration. The amount of time that mice spent licking the injected paw (reaction time in seconds) was recorded and considered as an index of pain.

rat paw = test: AITC-induced rat paw edema assay; conditions: for ability to decrease the AITC-induced inflammatory state compared with ibuprofen: 2 percent w/w ointment topically; for time of inflammation maximum following AITC injection: 2 percent w/w ointment, vehicle edema maximum at 3 hours; for level of AITC-induced edema (volume of affected paw): AITC 100 microgram per paw, 2 percent w/w ointment topically 30 minutes before and at each time point, percentage of the control
Procedure: One-way analysis of variance (ANOVA) followed by Tukey's post hoc comparison.
The anti-inflammatory effect was determined using an AITC-induced rat paw edema assay. […] The ointments were additionally applied by gently rubbing on the affected paw at each time point.

Row | SMILES | Reaction time (latency to lick a paw) (mice [1]; listed as COMPOUND 4, hydrochloride) [s] | Reaction time (latency to lick a paw) (mice [1]; listed as compound 4, hydrochloride) | Licking time (mice [2]) [s] | Licking time (mice [3]) [s] | Licking time (mice [4]) [s] | ability to decrease the AITC-induced inflammatory state compared with ibuprofen (rat paw) | time of inflammation maximum following AITC injection (rat paw) | Reaction time (latency to lick a paw) (mice [1]; listed as COMPOUND 2, hydrochloride) [s] | Reaction time (latency to lick a paw) (mice [1]; listed as compound 2, hydrochloride) | level of AITC-induced edema (volume of affected paw) (rat paw) [%] | Reaction time (latency to lick a paw) (mice [1]; listed as COMPOUND 1, hydrochloride) [s] | Reaction time (latency to lick a paw) (mice [1]; listed as compound 1, hydrochloride) | Reaction time (latency to lick a paw) (mice [1]; listed as COMPOUND 3, hydrochloride) [s] | Reaction time (latency to lick a paw) (mice [1]; listed as compound 3, hydrochloride) | Reaction time (latency to lick a paw) (mice [1]) [s] | Reaction time (latency to lick a paw) (mice [1]; listed as BZC)
1 | COc1ccccc1OC(=O)CCCN.Cl [Compound 4, 2-methoxylphenyl 4-aminobutyrate hydrochloride] | 16.5 ± 3.7 | about 16.5 sec | 24.3 ± 3.3 | 47.6 ± 9.8 | 25.3 ± 1.5 | relatively comparable effects with ibuprofen | about 1.5 hours |  |  |  |  |  |  |  |  | 
2 | Cc1ccc(C(C)C)c(OC(=O)CCCN)c1.Cl [Compound 2, 2-isopropyl-5-methylphenyl 4-aminobutyrate hydrochloride] |  |  | 19.7 ± 2.6 | 52.2 ± 6.6 | 20.3 ± 5.8 | exceed reference drug ibuprofen | about 1.5 hours | 21.3 ± 0.9 | about 21.3 sec | 112 |  |  |  |  |  | 
3 | CC(C)[C@@H]1CC[C@@H](C)C[C@H]1OC(=O)CCCN [Compound 1, (1R,2S,5R)-2-isopropyl-5-methylcyclohexyl-4-aminobutyrate hydrochloride] |  |  | 4.3 ± 0.9 | 30.3 ± 7.4 | 2.7 ± 0.3 | exceed reference drug ibuprofen | about 1.5 hours |  |  | 136 | 30.2 ± 2.6 | about 30.2 sec |  |  |  | 
4 | CC(C)Cc1ccc(C(C)C(=O)O)cc1 (stereo not drawn) [ibuprofen, reference compound] |  |  |  |  |  |  | about 1.5 hours |  |  |  |  |  |  |  |  | 
5 | Cc1ccc(C(C)C)cc1OC(=O)CCCN.Cl [Compound 3, 5-isopropyl-2-methylphenyl 4-aminobutyrate hydrochloride] |  |  | 12.0 ± 1.2 | 31.1 ± 8.3 | 22.8 ± 4.3 | relatively comparable effects with ibuprofen | about 1.5 hours |  |  |  |  |  | 19.3 ± 3.8 | about 19.3 sec |  | 
6 | CCOC(=O)c1ccc(N)cc1 [Benzocaine, benzocaine, reference compound] |  |  | 28.7 ± 6.6 | 36.3 ± 2.4 | 48.0 ± 2.0 |  |  |  |  |  |  |  |  |  | 18.3 ± 0.9 | about 18.3 sec
